Laboratory results published in US7718681B2, “5-(1,3-Diaryl-1H-pyrazol-4-ylmethylene)-thiazolidine,2,4-dione derivatives useful as anticancer agent” (Korea Research Institute of Chemical Technology, priority 2005, dated 2010).

Test system: C33A human uterine cancer cell line
Experiment: not given
Conditions: mouse, in vivo

Q: N.N.[Cl][Pt][Cl] [cisplatin, reference compound] was tested. Which “negative responses (reduced motion, lack of appetite)” value did it give?
A: reduced motion or lack of appetite

Biological target: T1, CDC25B (Homo sapiens, UniProt P30305)
T1 construct: Catalytic domain of CDC25B (aa 378-566) was expressed and produced in E. coli into a GST fusion protein; GST; made in house; host or cells: E. coli
T1 sequence (P30305 378-566 isoform P30305-2): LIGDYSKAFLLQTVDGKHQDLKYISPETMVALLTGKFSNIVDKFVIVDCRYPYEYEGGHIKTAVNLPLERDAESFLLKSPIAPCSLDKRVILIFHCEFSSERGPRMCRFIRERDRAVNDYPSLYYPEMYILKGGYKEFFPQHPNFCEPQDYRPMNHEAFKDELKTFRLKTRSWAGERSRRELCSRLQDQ
Experiment: CDC25B enzyme assay
Format: biochemical
Conditions: catalytic domain of CDC25B (aa 378-566) GST fusion, 20 μm FDP, 1 hour at room temperature, fluorescence
Procedure: Catalytic domain of CDC25B (aa 378-566) was expressed and produced in E. coli into a GST fusion protein, which was used as zymogen. Enzyme assay was carried out on a 96-well plate, with the final reaction volume per well adjusted to 200 μL. 170 μL of a buffer solution (30 mM Tris buffer, pH 8.5, 75 mM NaCl, 0.67 mM EDTA, 1 mM DTT), 20 μL (0.2 μg) of CDC25B enzyme and 10 μL of the test compound dissolved in DMSO were added, so that the final concentration became 1 μg/mL CDC25B and 20 μm FDP. Measurement was made after culturing at room temperature for 1 hour. FDP and DTT were added to the buffer solution just before assay, so that a fresh status could be maintained. After 1 hour of culturing, fluorescence resultant from the enzymatic reaction was measured at 485 nm (excitation) and 538 nm (emission).
The screened compound was treated to a final concentration of 1, 2, 5 and 10 μm to obtain the % inhibition value. If the inhibitory effect was low (less than 50% at […]), the concentration of the compound was increased to 20 μm and the % inhibition value and the IC50 value were obtained.

Q: With CCN1C(=O)SC(=Cc2cn(-c3ccccc3)nc2-c2ccccc2Cl)C1=O [Compound 2] as the molecule, how does the IC50 read?
A: 11400 nM

Q: With O=C1NC(=O)C(=Cc2cn(-c3ccccc3)nc2-c2cccc(Br)c2)S1 [Compound 3] as the molecule, how does the IC50 read?
A: 9450 nM

Q: Which IC50 does the source give for CCN1C(=O)S/C(=C\c2cn(-c3ccccc3)nc2-c2ccccc2Br)C1=O [Compound 5] here?
A: 8960 nM

Q: Which IC50 does the source give for CN1C(=O)S/C(=C\c2cn(-c3ccccc3)nc2-c2cccc([N+](=O)[O-])c2)C1=O [Compound 15, 5-[3-(3-nitro)-1-phenyl-1H-pyrazol-4-ylmethylene]-3-methyl-thiazolidine-2,4-dione] here?
A: 8280 nM

Q: How did the IC50 turn out when O=C1NC(=O)/C(=C/c2cn(-c3ccccc3)nc2-c2cccc(C(F)(F)F)c2)S1 [Compound 16, 5-[3-(3-trifluoromethyl)-1-phenyl-1H-pyrazol-4-ylmethylene]-thiazolidine-2,4-dione] was run?
A: 230 nM

Q: With CCCOc1cc(OCCC)cc(-c2nn(-c3ccccc3)cc2/C=C2\SC(=O)NC2=O)c1 [Compound 25] as the molecule, how does the IC50 read?
A: 1860 nM

Q: CC(C)Oc1cc(OC(C)C)cc(-c2nn(-c3ccccc3)cc2/C=C2\SC(=O)NC2=O)c1 [Compound 30] was tested. Which IC50 did it give?
A: 5740 nM

Q: Which IC50 does the source give for O=C1NC(=O)/C(=C/c2cn(-c3ccccc3)nc2-c2cc(OCC3CC3)cc(OCC3CC3)c2)S1 [Compound 35] here?
A: 1520 nM

Q: O=C1NC(=O)/C(=C/c2cn(-c3ccccc3)nc2-c2cc(OC3CCCC3)cc(OC3CCCC3)c2)S1 [Compound 41] was tested. Which IC50 did it give?
A: 540 nM

Q: O=C1NC(=O)/C(=C/c2cn(-c3ccccc3)nc2-c2ccc(OC(F)F)c(OCC3CC3)c2)S1 [Compound 52] was tested. Which IC50 did it give?
A: 2830 nM

Q: O=C1NC(=O)C(=Cc2cn(-c3ccccc3)nc2-c2cc(F)cc(F)c2)S1 [Compound 58, 5-[3-(3,5-difluoro-phenyl)-1-phenyl-1H-pyrazol-4-ylmethylene]-thiazolidine-2,4-dione] was tested. Which IC50 did it give?
A: 5790 nM

Q: With O=C1NC(=O)/C(=C/c2cn(-c3ccccc3)nc2-c2cc(OCc3ccccc3)cc(OCc3ccccc3)c2)S1 [Compound 62] as the molecule, how does the IC50 read?
A: 230 nM

Q: For O=C1NC(=O)/C(=C/c2cn(-c3ccc([N+](=O)[O-])cc3)nc2-c2cc(OCc3ccccc3)cc(OCc3ccccc3)c2)S1 [Compound 65], which IC50 is on record?
A: 210 nM

Q: For COc1c(Cl)cccc1-c1nn(-c2ccccc2)cc1/C=C1\SC(=O)NC1=O [Compound 66], which IC50 is on record?
A: 10600 nM

Q: CCOc1c(Cl)cccc1-c1nn(-c2ccccc2)cc1/C=C1\SC(=O)NC1=O [Compound 67] was tested. Which IC50 did it give?
A: 3410 nM

Q: CCOc1c(Cl)cccc1-c1nn(-c2ccccc2)cc1/C=C1\SC(=O)N(CC)C1=O [Compound 69] was tested. Which IC50 did it give?
A: 7200 nM

Q: How did the IC50 turn out when CCCOc1c(Cl)cccc1-c1nn(-c2ccccc2)cc1/C=C1\SC(=O)NC1=O [Compound 70] was run?
A: 4050 nM

Q: With CCOc1ccc(-c2nn(-c3ccccc3)cc2C=C2SC(=O)NC2=O)cc1Br [Compound 77, 5-[3-(3-bromo-4-ethoxy-phenyl)-1-phenyl-1H-pyrazol-4-ylmethylene]-thiazolidine-2,4-dione] as the molecule, how does the IC50 read?
A: 5650 nM

Q: For CCCOc1ccc(-c2nn(-c3ccccc3)cc2/C=C2\SC(=O)NC2=O)cc1Br [Compound 82], which IC50 is on record?
A: 2810 nM

Q: CCCOc1ccc(-c2nn(-c3ccccc3)cc2/C=C2\SC(=O)N(CCC)C2=O)cc1Br [Compound 85] was tested. Which IC50 did it give?
A: 2020 nM

Q: C=CCOc1ccc(-c2nn(-c3ccccc3)cc2/C=C2\SC(=O)NC2=O)cc1Br [Compound 88] was tested. Which IC50 did it give?
A: 2210 nM

Q: O=C1NC(=O)/C(=C/c2cn(-c3ccccc3)nc2-c2ccc(OCC3CC3)c(Br)c2)S1 [Compound 94] was tested. Which IC50 did it give?
A: 1630 nM

Q: For C#CCOc1ccc(-c2nn(-c3ccccc3)cc2/C=C2\SC(=O)NC2=O)cc1Br [Compound 100], which IC50 is on record?
A: 2980 nM

Q: Which IC50 does the source give for COc1ccc(-c2nn(-c3ccccc3)cc2/C=C2\SC(=O)NC2=O)cc1I [Compound 111] here?
A: 3250 nM

Q: How did the IC50 turn out when CCOc1ccc(-c2nn(-c3ccccc3)cc2C=C2SC(=O)NC2=O)cc1I [Compound 115] was run?
A: 570 nM

Q: For CCOc1ccc(-c2nn(-c3ccccc3)cc2/C=C2\SC(=O)N(CC)C2=O)cc1I [Compound 117], which IC50 is on record?
A: 590 nM

Q: How did the IC50 turn out when CCCN1C(=O)S/C(=C\c2cn(-c3ccccc3)nc2-c2ccc(OCC)c(I)c2)C1=O [Compound 118] was run?
A: 9250 nM

Q: For CCOc1ccc(-c2nn(-c3ccccc3)cc2C=C2SC(=O)NC2=O)cc1I [Compound 121], which IC50 is on record?
A: 2600 nM

Q: Which IC50 does the source give for CCCOc1ccc(-c2nn(-c3ccccc3)cc2/C=C2\SC(=O)NC2=O)cc1I [Compound 122] here?
A: 360 nM

Q: How did the IC50 turn out when C=CCOc1ccc(-c2nn(-c3ccccc3)cc2/C=C2\SC(=O)N(CC=C)C2=O)cc1I [Compound 132] was run?
A: 3600 nM

Q: C#CCN1C(=O)S/C(=C\c2cn(-c3ccccc3)nc2-c2ccc(OCC=C)c(I)c2)C1=O [Compound 133] was tested. Which IC50 did it give?
A: 4990 nM

Q: COc1ccc(-c2nn(-c3ccccc3)cc2/C=C2\SC(=O)NC2=O)cc1C(C)C [Compound 136] was tested. Which IC50 did it give?
A: 2060 nM

Q: CCCOc1ccc(-c2nn(-c3ccccc3)cc2/C=C2\SC(=O)NC2=O)cc1C(C)C [Compound 141] was tested. Which IC50 did it give?
A: 2240 nM

Q: For CCCOc1ccc(-c2nn(-c3ccccc3)cc2/C=C2\SC(=O)NC2=O)cc1C(C)(C)C [Compound 142], which IC50 is on record?
A: 1480 nM

Q: How did the IC50 turn out when COc1c(Br)cc(-c2nn(-c3ccccc3)cc2/C=C2\SC(=O)NC2=O)cc1Br [Compound 145] was run?
A: 1840 nM

Q: CCOc1c(Br)cc(-c2nn(-c3ccccc3)cc2/C=C2\SC(=O)NC2=O)cc1Br [Compound 151] was tested. Which IC50 did it give?
A: 1400 nM

Q: Which IC50 does the source give for CCOc1c(Br)cc(-c2nn(-c3ccccc3)cc2/C=C2\SC(=O)N(CC)C2=O)cc1Br [Compound 153] here?
A: 1360 nM

Q: How did the IC50 turn out when CCCOc1c(Br)cc(-c2nn(-c3ccccc3)cc2/C=C2\SC(=O)NC2=O)cc1Br [Compound 163] was run?
A: 1500 nM

Q: With C=CCOc1c(Br)cc(-c2nn(-c3ccccc3)cc2/C=C2\SC(=O)NC2=O)cc1Br [Compound 164] as the molecule, how does the IC50 read?
A: 170 nM

Q: How did the IC50 turn out when C#CCN1C(=O)S/C(=C\c2cn(-c3ccccc3)nc2-c2cc(Br)c(OCC=C)c(Br)c2)C1=O [Compound 169] was run?
A: 7140 nM

Q: With CCN1C(=O)S/C(=C\c2cn(-c3ccccc3)nc2-c2cc(Br)c(OCC3CC3)c(Br)c2)C1=O [Compound 173] as the molecule, how does the IC50 read?
A: 2350 nM

Q: Which IC50 does the source give for O=C1NC(=O)/C(=C/c2cn(-c3ccccc3)nc2-c2cc(Br)c(OC(F)F)c(Br)c2)S1 [Compound 178] here?
A: 710 nM

Q: How did the IC50 turn out when C=CCN1C(=O)S/C(=C\c2cn(-c3ccccc3)nc2-c2cc(Br)c(OC(F)F)c(Br)c2)C1=O [Compound 182] was run?
A: 13600 nM

Q: How did the IC50 turn out when COc1c(C(C)C)cc(-c2nn(-c3ccccc3)cc2/C=C2\SC(=O)NC2=O)cc1C(C)C [Compound 184] was run?
A: 3660 nM

Q: How did the IC50 turn out when CCCOc1c(C(C)C)cc(-c2nn(-c3ccccc3)cc2/C=C2\SC(=O)NC2=O)cc1C(C)C [Compound 190] was run?
A: 1090 nM

Q: Which IC50 does the source give for CC(C)(C)c1cc(-c2nn(-c3ccccc3)cc2/C=C2\SC(=O)NC2=O)cc(C(C)(C)C)c1O [Compound 192] here?
A: 3990 nM
